In US12139499B2, “Heteroaryl compounds for treating Huntington's disease” (PTC THERAPEUTICS, INC., priority 2018, dated 2024):

System: Endogenous Huntingtin Protein
Assay: Endogenous Huntingtin Protein Assay (ELISA-based MSD electrochemiluminescence)
Format: cell-based
Conditions: Table 1
Protocol: Compounds of Formula (I) or Formula (II) were tested using the Meso Scale Discovery (MSD) Assay provided in International Application No. PCT/US2016/066042, filed on Dec. 11, 2016 and claiming priority to U.S. Provisional Application 62/265,652 filed on Dec. 10, 2015, the entire contents of which are incorporated herein by reference.
The Endogenous Huntingtin Protein assay used in Example 1 was developed using the ELISA-based MSD electrochemiluminescence assay platform.
Endogenous Huntingtin Protein Assay
Meso Scale Discovery (MSD) 96-well or 384-well plates were coated overnight at 4° C. with MW1 (expanded polyglutamine) or MAB2166 monoclonal antibody (for capture) at a concentration of 1 μg/mL in PBS (30 μL per well). Plates were then washed three times with 300 μL wash buffer (0.05% Tween-20 in PBS) and blocked (100 μL blocking buffer; 5% BSA in PBS) for 4-5 hours at room temperature with rotational shaking and then washed three times with wash buffer.
Samples (25 μL) were transferred to the antibody-coated MSD plate and incubated overnight at 4° C. After removal of the lysates, the plate was washed three times with wash buffer, and 25 μL of #5656S (Cell signaling; rabbit monoclonal) secondary antibody (diluted to 0.25 μg/mL in 0.05% Tween-20 in blocking buffer) was added to each well and incubated with shaking for 1 Hour at room temperature. Following incubation with the secondary antibody, the wells were rinsed with wash buffer after which 25 μL of goat anti-rabbit SULFO TAG secondary detection antibody (required aspect of the MSD system) (diluted to 0.25 μg/mL in 0.05% Tween-20 in blocking buffer) was added to each well and incubated with shaking for 1 hour at room temperature. After rinsing three times with wash buffer, 150 μL of read buffer T with surfactant (MSD) were added to each empty well, and the plate was imaged on a SI 6000 imager (MSD) according to manufacturers' instructions provided for 96- or 384-well plates.

Row | Structure (SMILES) | IC50
1 | Cc1cn2nc(-c3cc(F)c4nc(N(C)C5CCNCC5)sc4c3)ccc2n1 [Compound 185, 4-fluoro-N-methyl-6-(2-methylimidazo[1,2-b]pyridazin-6-yl)-N-(piperidin-4-yl)-1,3-benzothiazol-2-amine] | ≤ 0.1 µM
2 | Cc1cn2nc(-c3cc(F)c4nc(C5CCNCC5)sc4c3)cc(Oc3ccccc3)c2n1 [Compound 195, 6-[4-fluoro-2-(piperidin-4-yl)-1,3-benzothiazol-6-yl]-2-methyl-8-phenoxyimidazo[1,2-b]pyridazine] | ≤ 0.1 µM
3 | Cc1cn2nc(-c3cc(F)c4nc(N(C)C5CC(C)(C)NC(C)(C)C5)sc4c3)cc(N)c2n1 [Compound 201, 6-{4-fluoro-2-[methyl(2,2,6,6-tetramethylpiperidin-4-yl)amino]-1,3-benzothiazol-6-yl}-2-methylimidazo[1,2-b]pyridazin-8-amine] | 0.1 to 0.5 µM
4 | C[C@H]1C[C@@H](N(C)c2nc3nnc(-c4ccc(-c5cn[nH]c5)cc4O)cc3s2)CCN1C [Compound 395, 2-(6-{[(2S,4S)-1,2-dimethylpiperidin-4-yl](methyl)amino}[1,3]thiazolo[4,5-c]pyridazin-3-yl)-5-(1H-pyrazol-4-yl)phenol] | ≤ 0.1 µM
5 | CN(c1nc2cnc(-c3cc(C#N)c4nn(C)cc4c3)cc2s1)C1CC(C)(C)NC(C)(C)C1 [Compound 117, 2-methyl-5-{2-[methyl(2,2,6,6-tetramethylpiperidin-4-yl)amino][1,3]thiazolo[4,5-c]pyridin-6-yl}-2H-indazole-7-carbonitrile] | ≤ 0.1 µM
6 | CN(c1nc2ccc(-c3ccc4nn(C)cc4c3)nc2s1)C1CCNCC1 [Compound 26, N-methyl-5-(2-methyl-2H-indazol-5-yl)-N-(piperidin-4-yl)[1,3]thiazolo[5,4-b]pyridin-2-amine] | 0.5 to 1 µM
7 | CN(c1nc2cnc(-c3cc(F)c4nn(C)cc4c3)cc2s1)C1CC2CCCC(C1)N2C (centres unmarked) [Compound 273, 6-(7-fluoro-2-methyl-2H-indazol-5-yl)-N-methyl-N-(9-methyl-9-azabicyclo[3.3.1]non-3-yl)[1,3]thiazolo[4,5-c]pyridin-2-amine] | 0.5 to 1 µM
8 | CN(c1nc2c(F)cc(-c3ccc4nn(C)cc4c3)cc2s1)C1CC(C)(C)NC(C)(C)C1 [Compound 23, 4-fluoro-N-methyl-6-(2-methyl-2H-indazol-5-yl)-N-(2,2,6,6-tetramethylpiperidin-4-yl)-1,3-benzothiazol-2-amine] | ≤ 0.1 µM
9 | Cc1cn2nc(-c3cc(F)c4nc(N5CCNC6(CC6)C5)sc4c3)cc(C)c2n1 [Compound 125, 6-[2-(4,7-diazaspiro[2.5]oct-7-yl)-4-fluoro-1,3-benzothiazol-6-yl]-2,8-dimethylimidazo[1,2-b]pyridazine] | 0.1 to 0.5 µM
10 | Cc1cn2nc(-c3cc(F)c4nc(OC5CC(C)(C)NC(C)(C)C5)sc4c3)cc(C)c2n1 [Compound 133, 6-{4-fluoro-2-[(2,2,6,6-tetramethylpiperidin-4-yl)oxy]-1,3-benzothiazol-6-yl}-2,8-dimethylimidazo[1,2-b]pyridazine] | ≤ 0.1 µM
11 | CN(c1nc2cnc(-c3ccc4nn(C)cc4c3)cc2s1)C1CC(C)(C)NC(C)(C)C1 [Compound 32, N-methyl-6-(2-methyl-2H-indazol-5-yl)-N-(2,2,6,6-tetramethylpiperidin-4-yl)[1,3]thiazolo[4,5-c]pyridin-2-amine] | ≤ 0.1 µM
12 | Cc1cn2cc(-c3cc4sc(N(C)C5CC6CCC(C5)N6)nc4cn3)cc(C#N)c2n1 (stereo not drawn) [Compound 203, 6-{2-[(3-exo)-8-azabicyclo[3.2.1]oct-3-yl(methyl)amino][1,3]thiazolo[4,5-c]pyridin-6-yl}-2-methylimidazo[1,2-a]pyridine-8-carbonitrile] | ≤ 0.1 µM
13 | CN(c1nc2ccc(-c3ccc4nn(C)cc4c3)nc2s1)C1CC(C)(C)NC(C)(C)C1 [Compound 25, N-methyl-5-(2-methyl-2H-indazol-5-yl)-N-(2,2,6,6-tetramethylpiperidin-4-yl)[1,3]thiazolo[5,4-b]pyridin-2-amine] | 0.1 to 0.5 µM
14 | Cc1cn2nc(-c3cc(F)c4nc(N(C)C5CC(C)(C)NC(C)(C)C5)sc4c3)ccc2n1 [Compound 37, 4-fluoro-N-methyl-6-(2-methylimidazo[1,2-b]pyridazin-6-yl)-N-(2,2,6,6-tetramethylpiperidin-4-yl)-1,3-benzothiazol-2-amine] | ≤ 0.1 µM
15 | Cc1cc(-c2cc3sc(C4CCNCC4)nc3cn2)cc2cn(C)nc12 [Compound 59, 6-(2,7-dimethyl-2H-indazol-5-yl)-2-(piperidin-4-yl)[1,3]thiazolo[4,5-c]pyridine] | 0.1 to 0.5 µM
16 | CN(C)[C@H]1CC[C@H](N(C)c2nc3nnc(-c4ccc(-c5cn[nH]c5)cc4O)cc3s2)CC1 [Compound 351, 2-(6-{[(1r,4r)-4-(dimethylamino)cyclohexyl](methyl)amino][1,3]thiazolo[4,5-c]pyridazin-3-yl)-5-(1H-pyrazol-4-yl)phenol] | 1 to 3 µM
17 | Cn1cc2cc(-c3cc4sc(OC5CC(C)(C)NC(C)(C)C5)nc4cn3)cc(C#N)c2n1 [Compound 311, 2-methyl-5-{2-[(2,2,6,6-tetramethylpiperidin-4-yl)oxy][1,3]thiazolo[4,5-c]pyridin-6-yl}-2H-indazole-7-carbonitrile] | ≤ 0.1 µM
18 | Cc1cn2cc(-c3cc4sc(N[C@@H]5C[C@H]6CC[C@@H](C5)N6C)nc4cn3)cc(C#N)c2n1 [Compound 245, 2-methyl-6-(2-{[(3-exo)-8-methyl-8-azabicyclo[3.2.1]oct-3-yl]amino][1,3]thiazolo[4,5-c]pyridin-6-yl)imidazo[1,2-a]pyridine-8-carbonitrile] | 1 to 3 µM
19 | Cc1cn2cc(-c3ccc4nc(N(C)C5CC(C)(C)NC(C)(C)C5)sc4c3)cc(C#N)c2n1 [Compound 138, 2-methyl-6-{2-[methyl(2,2,6,6-tetramethylpiperidin-4-yl)amino]-1,3-benzothiazol-6-yl}imidazo[1,2-a]pyridine-8-carbonitrile] | ≤ 0.1 µM
20 | Cc1cn2cc(-c3cc4sc(N(C)C5CC(C)(C)NC(C)(C)C5)nc4cn3)nc2c(C)n1 [Compound 296, 6-(6,8-dimethylimidazo[1,2-a]pyrazin-2-yl)-N-methyl-N-(2,2,6,6-tetramethylpiperidin-4-yl)[1,3]thiazolo[4,5-c]pyridin-2-amine] | ≤ 0.1 µM
21 | CN(c1nc2cnc(-c3cc(C#N)c4nn(C)cc4c3)cc2s1)C1CC2CCCC(C1)N2 (centres unmarked) [Compound 252, 5-{2-[9-azabicyclo[3.3.1]non-3-yl(methyl)amino][1,3]thiazolo[4,5-c]pyridin-6-yl}-2-methyl-2H-indazole-7-carbonitrile] | ≤ 0.1 µM
22 | Cc1cn2nc(-c3cc(F)c4nc(C5CCN6CCCC6C5)sc4c3)ccc2n1 (centres unmarked) [Compound 166, 6-[4-fluoro-2-(octahydroindolizin-7-yl)-1,3-benzothiazol-6-yl]-2-methylimidazo[1,2-b]pyridazine] | ≤ 0.1 µM
23 | Cc1cn2cc(-c3cc4sc(OC5CC6CCC(C5)N6)nc4cn3)cc(C#N)c2n1 (stereo not drawn) [Compound 223, 6-{2-[(3-exo)-8-azabicyclo[3.2.1]oct-3-yloxy][1,3]thiazolo[4,5-c]pyridin-6-yl}-2-methylimidazo[1,2-a]pyridine-8-carbonitrile] | 0.1 to 0.5 µM
24 | Cc1cn2nc(-c3cc(F)c4nc(N(C)C5CCNCC5)sc4c3)cc(C)c2n1 [Compound 186, 6-(2,8-dimethylimidazo[1,2-b]pyridazin-6-yl)-4-fluoro-N-methyl-N-(piperidin-4-yl)-1,3-benzothiazol-2-amine] | ≤ 0.1 µM
25 | Cc1cc(-c2ncc3nc(N(C)C4CC(C)(C)NC(C)(C)C4)sc3c2F)cc2cn(C)nc12 [Compound 101, 6-(2,7-dimethyl-2H-indazol-5-yl)-7-fluoro-N-methyl-N-(2,2,6,6-tetramethylpiperidin-4-yl)[1,3]thiazolo[4,5-c]pyridin-2-amine] | 0.1 to 0.5 µM
26 | Cc1cn2cc(-c3cc4sc(NC5CC(C)(C)N(C)C(C)(C)C5)nc4cn3)cc(C#N)c2n1 [Compound 266, 2-methyl-6-{2-[(1,2,2,6,6-pentamethylpiperidin-4-yl)amino][1,3]thiazolo[4,5-c]pyridin-6-yl}imidazo[1,2-a]pyridine-8-carbonitrile] | 0.1 to 0.5 µM
27 | Cc1cn2cc(-c3cc4sc(N(C)C5CC6CCCC(C5)N6C)nc4cn3)cc(C#N)c2n1 (centres unmarked) [Compound 270, 2-methyl-6-{2-[methyl(9-methyl-9-azabicyclo[3.3.1]non-3-yl)amino][1,3]thiazolo[4,5-c]pyridin-6-yl}imidazo[1,2-a]pyridine-8-carbonitrile] | ≤ 0.1 µM
28 | Cn1cc2cc(-c3nc4ccc(C5=CCNCC5)cc4s3)ccc2n1 [Compound 4, 2-(2-methyl-2H-indazol-5-yl)-6-(1,2,3,6-tetrahydropyridin-4-yl)-1,3-benzothiazole] | 0.1 to 0.5 µM
29 | CN(c1nc2ncc(-c3ccc4nn(C)cc4c3)cc2s1)C1CCNCC1 [Compound 12, N-methyl-6-(2-methyl-2H-indazol-5-yl)-N-(piperidin-4-yl)[1,3]thiazolo[4,5-b]pyridine-2-amine] | 1 to 3 µM
